Data: article PMC8659250, “Adjusting the Structure of β-Cyclodextrin to Improve Complexation of Anthraquinone-Derived Drugs” (Molecules, 2021)
Where a name gives a salt, the structure may show the parent alone. Read-outs that look alike come from different tables or passages of the source.

Legend:
[1] = Solubility of AQ2CA without cyclodextrins (UV-Vis); type: physicochemical; settings: 25 °C, thermodynamic from solid
Source text: (§1) Anthraquinone-2-carboxylic acid (AQ2CA) is a poorly water-soluble drug (SAQ2CA in water = 3.98 × 10^−5 M). […] An improvement in the aqueous solubility of AQ2CA would improve the biological availability of the drug. Such a drug solubilization effect was achieved via complexation using appropriate CD derivatives. The phase solubility method developed by Higuchi and Connors was employed to quantify the solubilization ability of cyclodextrins. The solubility values of AQ2CA in water, BR buffer at pH 7.4 (pH corresponding to the physiological conditions), and BR buffer at pH 3.0, with the addition of CDs was determined. The pH values characteristic for bodily fluids (pH 7.4) and for gastric juices (pH 3) were chosen for these measurements. […] According to the Higuchi and Connors classification, the phase solubility diagrams for anthraquinone-2-carboxylic acid with various cyclodextrin concentrations can be classified as AL type.
(§2) Solubility studies of anthraquinone-2-carboxylic acid with three different cyclodextrins were carried out according to the Higuchi and Connors procedure. The solutions of cyclodextrin in water and Britton–Robinson buffers (pH 7.4 and 5.5) were prepared in a concentration range of 0–3 mM. A constant amount of AQ2CA (3 mM) that exceeded its solubility was added into the cyclodextrin solution. Molar ratios of AQ2CA/CD were 1:0, 1:0.2, 1:0.4, 1:0.6, 1:0.8, and 1:1. Three samples of each molar ratio were prepared. The suspensions were shaken for 24 h at 25 °C, after which equilibrium was reached. After 24 h, the concentration of the dissolved drug was monitored by UV-Vis spectroscopy and plateaued; thus, the maximum dissolved drug was achieved. Subsequently, the samples were filtered using a 0.45 µm filter and appropriately diluted. The aliquots of solutions were assayed for AQ2CA again, by UV-Vis spectroscopy, in the 200–600 nm range with a maximum absorbance value for AQ2CA at 335 nm. […] The association constants of the inclusion complexes were determined using the following equation:(1) K1:1=Slope/S0(1−Slope) where K1:1 is the association constant and S0 is the solubility of AQ2CA in the absence of cyclodextrin. The slope was measured by UV-Vis spectroscopy from the initial straight-line part of the AQ2CA concentration vs. CD concentration plot. The uncertainty was determined as the standard deviation of the three values of the association constants obtained from three different repetitions of the given system.

[2] = cited from earlier work
[3] = Phase solubility diagrams (Higuchi and Connors) of AQ2CA with cyclodextrins; type: physicochemical; settings: for K1:1 (association constant, AQ2CA–cyclodextrin): phase solubility diagram, 25 °C; for Increase in solubility of AQ2CA (in words): pH 3.0
Source text: as §1
The association constant of the AQ2CA–cyclodextrin complex (1:1) was calculated from the linear plot of the phase solubility diagrams using Equation (1). The lines are started at the point of initial drug solubility, meaning, i.e., without the addition of cyclodextrin. The values of K1:1, as well as the solubility increase and correlation coefficients of the phase solubility diagrams, are presented in Table 1.
as §2, with “The solutions of cyclodextrin in water and Britton–Robinson buffers (pH 7.4 and 5.5) were prepared in a concentration range of 0–3 mM.” left out

[4] = Determination of pKa values of CD derivatives by UV-Vis spectroscopy; type: physicochemical; settings: Britton–Robinson buffer, pH range 2.7 to 9.5, triazole linker
Source text: Due to the fact that the triazole linker in CD derivatives contains a basic nitrogen atom that can be protonated at an acidic pH, we determined the value of pKa by UV-Vis spectroscopy. The spectra of βCDGAL, βCDLip, and βCDTriazol, at the pH range between 2.7 and 9.5, are presented on Figure 3. The dependence of the absorbance of the peak maximum at wavelengths in the range of 210–220 on the pH of the buffer is presented in the figures. According to the equation […] for equal concentrations of the protonated and deprotonated forms, pKa = pH; the pKa value, for all three derivatives containing the triazole linker, was determined to be 4.5.
The UV-Vis measurements were performed using an Agilent Technologies Cary 60 UV-Vis Spectrophotometer (Santa Clara, CA, USA). All UV-Vis spectra were measured using quartz cuvettes with a 1 cm optical path length. For pKa determination the 0.2 mg/mL concentration of βCDTriazole, βCDGAL or βCDLip in Britton–Robinson buffer were used.

SMILES | K1:1 (association constant, AQ2CA–cyclodextrin) ([3]; Britton–Robinson buffer pH 3.0) | K1:1 (association constant, AQ2CA–cyclodextrin) ([3]; Britton–Robinson buffer pH 7.4) | K1:1 (association constant, AQ2CA–cyclodextrin) ([3]; water) | pKa [4] | other results
O=C(O)c1ccc2c(c1)C(=O)c1ccccc1C2=O [AQ2CA, 9,10-dihydro-9,10-dioxo-2-anthracenecarboxylic acid] | – | – | – | – | solubility at 24 h ([1]; aqueous buffer, Britton–Robinson buffer pH 3.0, without CDs, read-out: Solubility of AQ2CA in Britton–Robinson buffer, pH 3.0): 1.43 µM; solubility at 24 h ([1]; aqueous buffer, Britton–Robinson buffer pH 3.0, read-out: Solubility in Britton–Robinson buffer, pH 3.0 without CDs): 0.36 µg/mL; solubility at 24 h ([1]; aqueous buffer, Britton–Robinson buffer pH 7.4, without CDs, read-out: Solubility of AQ2CA in Britton–Robinson buffer, pH 7.4): 1740 µM; solubility at 24 h ([1]; aqueous buffer, Britton–Robinson buffer pH 7.4, read-out: Solubility in Britton–Robinson buffer, pH 7.4 without CDs): 440 µg/mL; solubility at 24 h ([1]; water, without CDs, read-out: Solubility of AQ2CA in water): 39.8 µM; solubility at 24 h ([1]; water, water, read-out: Solubility in water without CDs): 10 µg/mL
COc1cccc2c1C(=O)c1c(O)c3c(c(O)c1C2=O)C[C@@](O)(C(C)=O)C[C@@H]3O[C@H]1C[C@H](N)[C@H](O)[C@H](C)O1 [DNR, daunorubicin] | – | – | – | – | pKa [2]: 7.48
OC[C@H]1O[C@@H]2O[C@H]3[C@H](O)[C@@H](O)[C@@H](O[C@H]4[C@H](O)[C@@H](O)[C@@H](O[C@H]5[C@H](O)[C@@H](O)[C@@H](O[C@H]6[C@H](O)[C@@H](O)[C@@H](O[C@H]7[C@H](O)[C@@H](O)[C@@H](O[C@H]8[C@H](O)[C@@H](O)[C@@H](O[C@H]1[C@H](O)[C@H]2O)O[C@@H]8CO)O[C@@H]7CO)O[C@@H]6CO)O[C@@H]5CO)O[C@@H]4CO)O[C@@H]3CO [βCD, β-Cyclodextrin] | 1480 ± 180 M⁻¹ | 350 ± 40 M⁻¹ | 460 ± 45 M⁻¹ | – | –
O=C(N[C@H]1C(O)O[C@H](CO)[C@H](O)[C@@H]1O)OCc1cn(C[C@H]2O[C@@H]3O[C@H]4[C@H](O)[C@@H](O)[C@@H](O[C@H]5[C@H](O)[C@@H](O)[C@@H](O[C@H]6[C@H](O)[C@@H](O)[C@@H](O[C@H]7[C@H](O)[C@@H](O)[C@@H](O[C@H]8[C@H](O)[C@@H](O)[C@@H](O[C@H]9[C@H](O)[C@@H](O)[C@@H](O[C@H]2[C@H](O)[C@H]3O)O[C@@H]9CO)O[C@@H]8CO)O[C@@H]7CO)O[C@@H]6CO)O[C@@H]5CO)O[C@@H]4CO)nn1 (stereo partly drawn) [βCDGAL] | 2760 ± 110 M⁻¹ | 1300 ± 60 M⁻¹ | 840 ± 45 M⁻¹ | 4.5 | Increase in solubility of AQ2CA (in words) [3]: almost tenfold increase
O=C(CCCCC1CCSS1)OCc1cn(C[C@H]2O[C@@H]3O[C@H]4[C@H](O)[C@@H](O)[C@@H](O[C@H]5[C@H](O)[C@@H](O)[C@@H](O[C@H]6[C@H](O)[C@@H](O)[C@@H](O[C@H]7[C@H](O)[C@@H](O)[C@@H](O[C@H]8[C@H](O)[C@@H](O)[C@@H](O[C@H]9[C@H](O)[C@@H](O)[C@@H](O[C@H]2[C@H](O)[C@H]3O)O[C@@H]9CO)O[C@@H]8CO)O[C@@H]7CO)O[C@@H]6CO)O[C@@H]5CO)O[C@@H]4CO)nn1 (stereo partly drawn) [βCDLip] | 2520 ± 175 M⁻¹ | 940 ± 25 M⁻¹ | 800 ± 40 M⁻¹ | 4.5 | Increase in solubility of AQ2CA (in words) [3]: almost tenfold increase
CCCc1cn(C[C@H]2O[C@@H]3O[C@H]4[C@H](O)[C@@H](O)[C@@H](O[C@H]5[C@H](O)[C@@H](O)[C@@H](O[C@H]6[C@H](O)[C@@H](O)[C@@H](O[C@H]7[C@H](O)[C@@H](O)[C@@H](O[C@H]8[C@H](O)[C@@H](O)[C@@H](O[C@H]9[C@H](O)[C@@H](O)[C@@H](O[C@H]2[C@H](O)[C@H]3O)O[C@@H]9CO)O[C@@H]8CO)O[C@@H]7CO)O[C@@H]6CO)O[C@@H]5CO)O[C@@H]4CO)nn1 [βCDTriazol] | – | – | – | 4.5 | –
NC[C@H]1O[C@@H]2O[C@H]3[C@H](O)[C@@H](O)[C@@H](O[C@H]4[C@H](O)[C@@H](O)[C@@H](O[C@H]5[C@H](O)[C@@H](O)[C@@H](O[C@H]6[C@H](O)[C@@H](O)[C@@H](O[C@H]7[C@H](O)[C@@H](O)[C@@H](O[C@H]8[C@H](O)[C@@H](O)[C@@H](O[C@H]1[C@H](O)[C@H]2O)O[C@@H]8CO)O[C@@H]7CO)O[C@@H]6CO)O[C@@H]5CO)O[C@@H]4CO)O[C@@H]3CO [βCDamine, 6-monodeoxy-6-monoamino-β-cyclodextrin hydrochloride] | 2450 ± 200 M⁻¹ | – | 280 ± 30 M⁻¹ | – | pKa ([2]; amine derivative CD): 8.84
